Experimental data as given in US6342503B1, “1N-alkyl-n-arylpyrimidinamines and derivatives thereof” (DuPont Pharmaceuticals Company, priority 1993, dated 2002).

Each compound was assayed against T1, CRF receptor (Rattus norvegicus, UniProt P35353) (assay: In vitro CRF receptor binding assay (competition with [125I] ovine CRF, rat cortex membranes)). Details: competition with [125I] ovine CRF, 2 h at 22° C.; Ki classes; read-out: Inhibition Ki.
T1 construct: 100 μl of membrane suspension as prepared above to give a total reaction volume of 300 μl; from tissue; host or cells: rat cerebral cortex membrane homogenate
T1 sequence (P35353 24-415): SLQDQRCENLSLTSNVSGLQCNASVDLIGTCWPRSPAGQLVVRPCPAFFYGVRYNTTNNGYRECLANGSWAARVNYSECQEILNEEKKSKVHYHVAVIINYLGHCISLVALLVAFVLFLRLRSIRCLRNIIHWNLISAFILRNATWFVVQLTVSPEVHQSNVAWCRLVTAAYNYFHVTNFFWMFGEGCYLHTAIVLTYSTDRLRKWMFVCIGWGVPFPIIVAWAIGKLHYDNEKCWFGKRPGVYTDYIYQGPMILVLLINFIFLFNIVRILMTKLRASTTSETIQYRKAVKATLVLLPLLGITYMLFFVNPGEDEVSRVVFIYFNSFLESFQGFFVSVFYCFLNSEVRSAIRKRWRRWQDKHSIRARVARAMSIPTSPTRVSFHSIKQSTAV
Experimental: In vitro Receptor Binding Assay
Tissue Preparation: Male Sprague Dawley rats (180-200 g) were sacrificed by decapitation and the cortex was dissected on ice, frozen whole in liquid nitrogen and stored at −70° C. until use. On the day of assay, frozen tissue was weighed and homogenized in 20 volumes of ice cold buffer containing 50 mM Tris, 10 mM MgCl2, 2 mM EGTA, pH 7.0 at 22° C. using a Polytron (Brinkmann Instruments, Westbury, N.Y.; setting 6) for 20 s. The homogenate was centrifuged at 48,000× g for 10 min at 4° C. The supernatant was discarded, and the pellet was re-homogenized in the same volume of buffer and centrifuged at 48,000× g for 10 min at 4° C. The resulting pellet was resuspended in the above buffer to a final concentration of 20-40 mg original wet weight/mL and used in the assays described below.
CRF Receptor Binding: Receptor binding assays were carried out essentially as described by E. B. De Souza, J. Neurosci. […]
All assays were carried out at equilibrium for 2 h at 22° C. as described by E. B. De Souza, J. Neurosci. […] The reaction was terminated by centrifugation of the tubes in a Beckman microfuge for 5 min at 12,000× g. Aliquots of the supernatant were collected to determine the “free” radioligand concentration. The remaining supernatant was aspirated and the pellets washed gently with ice-cold PBS plus 0.01% Triton X-100; centrifuged again and monitored for bound radioactivity as described above. […] This program has the distinct advantage of fitting the raw experimental data on an untransformed coordinate system where errors are most likely to be normally distributed and uncorrelated with the independent variable. […] The parameters for the affinity constants (KD) and receptor densities (Bmax) are also provided along with statistics on the general “fit” of the estimated parameters to the raw data.
Competition Curve Analysis
The resulting pellets were surface washed twice by centrifugation with 1 mL of ice-cold phosphate buffered saline and 0.01% Triton X-100; the supernatants discarded and the pellets monitored for radioactivity at approximately 80% efficiency. The level of non-specific binding was defined in the presence of […] unlabeled rat/humanCRF (r/hCRF). Data from competition curves were analyzed by the program LIGAND. […] Routinely, the data were analyzed using a one- and two-site model comparing the “goodness of fit” between the models in order to accurately determine the Ki. Statistical analyses provided by LIGAND allowed the determination of whether a single-site or multiple-site model should be used.
In Table 17; the Ki values were determined using the assay conditions described above.

| Ki [µM] | SMILES |
| --- | --- |
| 2 to 10 | CCN(c1nc(C)cc(C(=O)N2CCN(C)CC2)n1)c1ccc(C(C)C)cc1Br [compound 63, N-(2-bromo-4-(1-methylethyl)phenyl)-N-ethyl-4-methyl-6-(4-methylpiperazinylcarbonyl)-2-pyrimidinamine] |
| < 0.5 | CCN(c1nc(C)cc(N2CCOCC2)n1)c1ccc(C(C)C)cc1Br [compound 16, N-(2-bromo-4-(1-methylethyl)phenyl)-N-ethyl-4-morpholino-6-methyl-2-pymidinamine] |
| < 0.5 | CCN(c1nc(C)cc(C(=O)OC)n1)c1ccc(C(C)C)cc1Br [compound 61, Methyl 2-((2-bromo-4-(1-methylethyl)phenyl)ethylamino)-6-methyl-4-pyrimidinecarboxylate] |
| < 0.5 | CCN(c1nc(C)cc(C)n1)c1ccc(C(C)=NOC)cc1SC [compound 178, N-(2-methylthio-4-methoxyiminoethylphenyl)-N-ethyl-4,6-dimethyl-2-pyrimidinamine] |
| 2 to 10 | CCN(c1nc(C)cc(C)n1)c1ccc(C(C)=NOC)cc1S(C)(=O)=O [compound 179, N-(2-methylsulfonyl-4-methoxyiminoethylphenyl)-N-ethyl-4,6-dimethyl-2-pyrimidinamine] |
| 2 to 10 | CCN(c1nc(C)cc(C)n1)c1ccc(C(C)C)cc1OC [compound 65, N-ethyl-N-(2-methoxy4-(1-methylethyl)phenyl)4,6-dimethyl-2-pyimidinamine] |

Same assay, conditions: read-out: Inhibition Ki

| SMILES | Ki [µM] |
| --- | --- |
| CCN(c1nc(C)cc(CN2CCN(c3ccccc3OC)CC2)n1)c1ccc(C(C)C)cc1Br [compound 275] | < 0.5 |
| CCN(c1nc(C)cc(OCCCS(C)(=O)=O)n1)c1ccc(C(C)C)cc1Br [compound 156] | < 0.5 |
| CCN(c1nc(C)cc(S(C)(=O)=O)n1)c1ccc(C(C)C)cc1Br [compound 159, N-(2-bromo-4-(1-methylethyl)phenyl)-N-ethyl-4-methyl-6-(thiomethyl)-2-pyrimidinamine, dioxide] | < 0.5 |
| Cc1cc(-c2ccccc2)c2c(C#N)cn(-c3ccc(C(C)C)cc3Br)c2n1 [Example 256] | < 0.5 |
| CCN(c1nc(C)cc(CN2CCN(c3ccccn3)CC2)n1)c1ccc(C(C)C)cc1Br [compound 280] | < 0.5 |
| CCN(c1nc(C)cc(COCc2ccncc2)n1)c1ccc(C(C)C)cc1Br [compound 219] | < 0.5 |
| CCN(c1nc(C)cc(C(=O)c2c[nH]c3ccccc23)n1)c1ccc(C(C)C)cc1Br [compound 283] | 2 to 10 |
| Cc1cc(Cl)nc2c1ccn2-c1ccc(C(C)C)cc1Br [Example 263] | < 0.5 |
| CCN(c1nc(C)cc(COc2ccccc2)n1)c1ccc(C(C)C)cc1Br [compound 209] | < 0.5 |
| Cc1cc(-c2ccccc2)c2ccn(-c3ccc(C(C)C)cc3Br)c2n1 [Example 261] | < 0.5 |
| CCN(c1nccc(C)n1)c1ccc(C(C)C)cc1Br [compound 49, N-(2-Bromo-4-(1-methylethyl)phenyl)-N-ethyl-4-methyl-2-pymidinamine] | 2 to 10 |
| CCN(c1nc(C)cc(CN2CCN(c3ncccn3)CC2)n1)c1ccc(C(C)C)cc1Br [compound 281] | < 0.5 |
| CCN(c1nc(C)cc(COCc2cc(OC)c(OC)c(OC)c2)n1)c1ccc(C(C)C)cc1Br [compound 212] | < 0.5 |
| CCN(c1nc(C)cc(CN2CCN(c3cnccn3)CC2)n1)c1ccc(C(C)C)cc1Br [compound 278] | < 0.5 |
| CCN(c1nc(C)nc(N(C)C)n1)c1c(Br)cc(OC)cc1OC [compound 238] | < 0.5 |
| Cc1cc(C)nc(N(C)c2ccc(C(C)C)cc2)n1 [compound 66] | 2 to 10 |
| COc1ccc(N(C)c2nc(C)cc(C)n2)c(OC)c1 [compound 2] | 0.501 to 2 |
| CCN(c1nc(C)cc(OC[C@@H]2CCCN2C)n1)c1ccc(C(C)C)cc1SC [compound 177, N-(2-methylthio4-(1-methylethyl)phenyl)-N-ethyl-4(S)-(N-methyl-2′-pyrrolidinomethoxy)-6-methyl-2-pyrimidinamine] | 0.501 to 2 |
| CCN(c1nc(C)nc(N2CCCCC2)n1)c1ccc(C(C)C)cc1I [compound 137] | < 0.5 |
| CCN(c1nc(C)cc(OCc2ccccc2)n1)c1ccc(C(C)C)cc1Br [compound 149] | < 0.5 |
| Cc1cc(C)nc(N(C)c2ccccc2C(F)(F)F)n1 [compound 54] | 2 to 10 |
| CCN(c1nc(C)cc(C(=O)N2CCOCC2)n1)c1ccc(C(C)C)cc1Br [compound 58, N-(2-bromo-4-(1-methylethyl)phenyl)-N-ethyl-4-methyl-6-(4-morpholinylcarbonyl)-2-pyrimidinamine] | < 0.5 |
| CCN(c1nc(C)cc(COCCN2CCOCC2)n1)c1ccc(C(C)C)cc1Br [compound 231] | 2 to 10 |
| CCN(c1nc(C)cc(N2CCSC2)n1)c1ccc(C(C)C)cc1I [compound 171, N-(2-iodo-4-(1-methylethyl)phenyl)-N-ethyl-4-thiazolidino-6-methyl-2-pyrimidinamine] | < 0.5 |
| CCN(c1nc(C)cc(CN(C)Cc2ccco2)n1)c1ccc(C(C)C)cc1Br [compound 276] | < 0.5 |
| CCN(c1nc(C)cc(COc2ncccn2)n1)c1ccc(C(C)C)cc1Br [compound 213] | < 0.5 |
| CCN(c1nc(C)cc(COCC(=O)N2CCOCC2)n1)c1ccc(C(C)C)cc1Br [compound 229] | 2 to 10 |
| CCN(c1nc(C)cc(COCc2ccco2)n1)c1ccc(C(C)C)cc1Br [compound 221] | < 0.5 |
| Cc1cc(C)nc(N(C)c2ccc(I)cc2)n1 [compound 52] | 2 to 10 |

Results, then the compound that gave them:

| Ki [µM] | SMILES |
| --- | --- |
| 0.501 to 2 | CCN(c1nc(C)cc(C=O)n1)c1ccc(C(C)C)cc1Br [compound 222, N-(2-Bromo-4-(1-methylethyl)phenyl)-N-ethyl-4-formyl-6-methyl-2-pyrimidinamine] |
| < 0.5 | CCN(c1nc(C)cc(COCCOC)n1)c1ccc(C(C)C)cc1Br [compound 227] |
| 0.501 to 2 | Cc1ccc(N(C)c2nc(C)cc(C)n2)c(Br)c1 [compound 1, N-(2-bromo-4-methylphenyl)-N-methyl-4,6-dimethyl-2-pymidinamine] |
| < 0.5 | CCCCc1ccc(N(CC)c2nc(C)cc(C)n2)c(Br)c1 [compound 19] |
| < 0.5 | CCN(c1nc(C)cc(OCCCSC)n1)c1ccc(C(C)C)cc1Br [compound 150] |
| 2 to 10 | CCN(c1nc(C)cc(NN)n1)c1ccc(C(C)C)cc1Br [compound 146] |
| < 0.5 | C#CCN(c1nc(C)cc(C)n1)c1ccc(C(C)C)cc1Br [compound 34, N-(2-Bromo-4-(1-methylethyl)phenyl)-N-propargyl4,6-dimethyl-2-pyrimidinamine] |
| < 0.5 | Cc1cc(C)nc(N(C)c2ccc(C(C)C)cc2Br)n1 [compound 4, N-(2-bromo-4-(1-methylethyl)phenyl)-N-methyl-4,6-dimethyl-2-pymidinamine] |
| < 0.5 | CCN(c1nc(C)cc(C(C)O)n1)c1ccc(C(C)C)cc1Br (centres unmarked) [compound 296] |
| < 0.5 | Cc1cc(C)nc(N(C)c2ccc(C(C)(C)C)cc2Br)n1 [compound 11] |
| 0.501 to 2 | CCSc1cc(C(C)C)ccc1N(CC)c1nc(C)cc(C)n1 [compound 175, N-(2-ethylthio-4-(1-methylethyl)phenyl)-N-ethyl-4,6dimethyl-2-pyrimidinamine] |
| < 0.5 | CCN(c1nc(C)cc(OCCC[S+](C)[O-])n1)c1ccc(C(C)C)cc1Br (centres unmarked) [compound 162] |
| < 0.5 | CCOc1ccc(N(CC)c2nc(C)cc(C)n2)c(Br)c1 [compound 201] |
| < 0.5 | CCN(c1nc(C)cc(C)n1)c1ccc(C(C)OC)cc1SC (centres unmarked) [compound 189, N-(4-(1-methoxyethyl)-2-methylthiophenyl)-N-ethyl-4,6-dimethyl-2-pyrimidinamine] |
| < 0.5 | CCN(c1nc(C)cc(COCCO)n1)c1ccc(C(C)C)cc1Br [compound 225, N-(2-Bromo-4-(1-methylethyl)phenyl)-N-ethyl-4-hydroxyethoxymethyl-6-methyl-2-pyrimidinamine] |
